Source: patent US20240376517A1 (THE UNIVERSITY COURT OF THE UNIVERSITY OF EDINBURCH, priority 2021, published 2024)
*1 amine or outer side, *2 acyl side, *3 side chain or, on linkers, in order; H or OH if unused. Where a SMILES comes first, the peptide text is derived from it. Where no end group is shown, it is not given here. [ ]: non-standard residue; d: D form. The star is where a group is joined. ξ: configuration not given here. BODIPY(FL) = CC1=CC(C)=[N+]2C1=Cc1ccc(CCC(=O)*)n1[B-]2(F)F; X1 = CN(C)c1ccc(/N=N/c2ccc(C(=O)*)cc2)cc1; Ethylenediamine = C(CN[*:2])N[*:1]; Ile(3ξ) = CCC(C)[C@H](N)C(=O)O; AMC = Cc1cc(=O)oc2cc(N*)ccc12

Experiments:
[1] = test system: co-cultures of E0771 cells and IL-2-activated CD8+ T cells; test: Drug screening, image-based phenotypic screen with H5; assay type: cell-based, mouse; details: drug at working concentration plus IL-2 100 U mL^−1, 3 h
Method: Drug screening. E0771 (750 cells/well) and freshly isolated murine CD8+ T cells (6,000 cells/well) were plated in 384-well plates as described above. […] H5 (20 μM) and Hoechst 33342 (1 μM) was added for 1 h at 37° C., washed with PBS and imaged under ImageXpress™ XLS (Molecular Devices) using KRB (10% FBS) buffer as media. Fluorescent images (4 sites/well) were acquired under a 40× objective using 405 nm (Hoechst) and 488 nm (H5) excitation wavelengths and data was analysed with MetaXpress software using the Custom Module Editor. Briefly, nuclei were used as seeds to create a pseudo-cell area and granzyme B positive puncta were detected using a top-hat filter (pixel size: 10, circle shape) followed by an average filter (3×3 pixel).

[2] = molecular target: T1, human recombinant granzyme B (Homo sapiens, UniProt P10144); test: HPLC/MS analysis of probe cleavage by granzyme B in urine; assay type: biochemical; details: after 1 h with granzyme B present
T1 sequence (P10144 21-247): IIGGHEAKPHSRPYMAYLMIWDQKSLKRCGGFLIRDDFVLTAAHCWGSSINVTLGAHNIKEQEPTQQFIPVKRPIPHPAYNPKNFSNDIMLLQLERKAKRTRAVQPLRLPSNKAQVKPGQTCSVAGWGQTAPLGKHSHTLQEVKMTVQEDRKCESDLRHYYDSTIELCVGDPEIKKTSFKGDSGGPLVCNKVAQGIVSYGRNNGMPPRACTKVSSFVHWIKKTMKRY
Method: (§1) Following incubation, the samples were diluted with MeOH, centrifuged and the supernatant injected into the HPLC/MS. Samples were eluted with 0.1% HCOOH in H2O (A) and 0.1% HCOOH in MBCN (B), with a gradient of 0 to 100% B over 5 minutes and an additional isocratic period of 3 minutes with a flow rate of 1.5 mL min^−1. Reactions were monitored from 220-700 nm and percentage cleaved was determined by comparing peak area of the cleaved probe against the intact probe on MassLynx software.

[3] = assay type: in vitro ADME, human
Method: as §1, with “Probe (H5 or R7) (25 μM) was incubated with human recombinant granzyme B (15 nM) in Granzyme B buffer for 1.5 h at 37° C. Following” for “Following”
We first sought to address the stability of probe H5 and R7 and in urine from 3 healthy donors to ensure no cross-reactivity occurred with any other biomolecules that may be present in all urine samples. To do this we monitored the fluorescence response of probe H5 and R7 in urine with and without spiked granzyme B (15 nM) and also assessed stability via HPLC analysis. […] (FIG. 11). It should also be noted that HPLC-MS confirmed the cleavage of probe H5 and R7 after the aspartic acid residue (the natural granzyme B cleavage site).

mKate-E0771 cancer cells = assay type: cell-based, mouse
Method: FIG. 8. […] Cell viability was determined using a commercially available MTT kit (Invitrogen) with values normalized to untreated cells. Data presented as mean values±SEM (2 independent experiments with 3 replicates for each).

hGzmB [4] = molecular target: T2, hGzmB (Homo sapiens, UniProt P10144); test: HPLC conversion/cleavage of probes by hGzmB; assay type: biochemical; details: for cleavage at 100 nM for 24 h: 100 nM enzyme
T2 sequence (P10144 21-247): as above
Description: FIG. 5. HPLC traces of the probe H5 before and after reaction with hGzmB. HPLC chromatogram and mass spectrometry analysis of the probe H5 before and after reaction with increasing concentrations of hGzmB. Mcalc. (intact probe): 1246.6 [M+Na^+]; Mcalc. (cleaved probe): 747.2 [M+H^+].

[5] = molecular target: T1, human recombinant granzyme B; test: Reactivity of NIR probes with granzyme B; assay type: biochemical
Method: With the probes in hand (Table 4) they were tested for their reactivity with human recombinant granzyme B to identify a lead candidate. Each probe was tested at a concentration of 25 μM against 20 nM granzyme B and fluorescence was recorded over 2 hours at 37° C. (λex: 620 nm, λem: 660 nm).

[6] = test system: E0771 cells alone or in co-culture with CD8+ T cells; test: AZD5363 follow-up: cell death and H5 staining by flow cytometry; assay type: cell-based, mouse
Method: FIG. 10. […] Co-cultures were stained with probe H5 (5 μM) and AF647-Annexin V (10 nM). Excitation/emission wavelengths: 488 nm/525 nm (for probe H5), 633/670 nm (for AF647-Annexin V). c) Percentages of E0771 cells that were double-stained with probe H5 and AF647-Annexin V under the experimental conditions described in a). Data presented as mean values±SEM (n=3).

hGzmB [7] = molecular target: T2, hGzmB; test: Fluorescence assays with recombinant hGzmB; assay type: biochemical
Method: Fluorescence assays with recombinant enzymes. Fluorescence-based assays with enzymes were performed in buffer-1 (50 mM Tris, 100 mM NaCl, pH 7.4) for GzmB, pro-GzmB, GzmA and HNE, or buffer-2 (25 mM HEPES, 0.1% CHAPS, 10 mM DTT, pH 7.5) for caspases and other enzymes. Probes (25 μM) were added to enzymes (20 nM or at the indicated concentrations) in 384-well plates and their fluorescence emission was recorded at 450 nm (for AMC) or 510 nm (for BODIPY) at 37° C. using a Synergy H1 Hybrid reader (BioTek). In experiments with Ac-IEPD-CHO (50 μM), the inhibitor was pre-incubated for 1 h with GzmB before addition of any probe.

GzmB = details: cited from earlier work
[8] = test system: recombinant hGzmB (20 nM); test: buffer-1 (50 mM Tris, 100 mM NaCl, pH 7.4); details: human, 37° C., up to 2 h
hGzmB (100 nM) = details: human, up to 24 h
[9] = test system: human recombinant granzyme B (15 nM); test: urine from 3 healthy donors with spiked granzyme B (15 nM); details: 37° C., up to 3 hours
[10] = urine from 3 healthy donors, without granzyme B; details: human, 37° C., up to 3 hours

CC(=O)O[C@@]12CO[C@@H]1C[C@H](O)[C@@]1(C)C(=O)[C@H](O)C3=C(C)[C@@H](OC(=O)[C@H](O)[C@@H](NC(=O)OC(C)(C)C)c4ccccc4)C[C@@](O)([C@@H](OC(=O)c4ccccc4)[C@H]21)C3(C)C [C11, Docetaxel]
H5 fluorescence signal compared to IL-2 only controls [1]: Increased fluorescence signals

C#CC[C@H](c1nc2cc(Cl)ccc2c(=O)n1Nc1ccccc1)N(CCCN)C(=O)c1cccc(Cl)c1F [C12, ARQ621]
H5 fluorescence signal compared to IL-2 only controls [1]: Increased fluorescence signals

C/C(=C\c1csc(C)n1)[C@@H]1C[C@@H]2O[C@]2(C)CCC[C@H](C)[C@H](O)[C@@H](C)C(=O)C(C)(C)[C@@H](O)CC(=O)O1 [C13, Epothilone B]
H5 fluorescence signal compared to IL-2 only controls [1]: Increased fluorescence signals

CO[C@@]12[C@H](COC(N)=O)C3=C(C(=O)C(C)=C(N)C3=O)N1C[C@@H]1N[C@@H]12 [C18, Mitomycin C]
H5 fluorescence signal compared to IL-2 only controls [1]: Increased fluorescence signals

CC(=O)N[C@@H](CSC(=O)[C@]1([C@@H](O)C(C)C)NC(=O)[C@H](C)[C@@H]1O)C(=O)O [C30, Lactacystin]
H5 fluorescence signal compared to IL-2 only controls [1]: Increased fluorescence signals

CCC(C)[C@H](NC(=O)CCC1=[N+]2C(=Cc3c(C)cc(C)n3[B-]2(F)F)C=C1)C(=O)N[C@@H](CCC(=O)O)C(=O)N1CCC[C@H]1C(=O)N[C@@H](CC(=O)O)C(=O)N[C@@H](C)C(=O)N[C@@H](CC(C)C)C(=O)NCCNC(=O)c1ccc(/N=N/c2ccc(N(C)C)cc2)cc1 (stereo partly drawn) [H5] ({BODIPY(FL)}-[Ile(3ξ)]EPDAL-{Ethylenediamine-X1})
conversion to the cleaved probe in urine [2]: up to 84% | probe cleaved in the urine sample alone (HPLC) [3]: less than 1% | cytotoxicity (cell viability) (mKate-E0771 cancer cells): not cytotoxic | HPLC conversion (20 nM hGzmB, 2 h) (hGzmB [4]): 100%

CCC(C)[C@H](NC(=O)CCCCCN1/C(=C/C=C/C=C/C2=[N+](C)c3ccc(S(=O)(=O)[O-])cc3C2(C)C)C(C)(C)c2cc(S(=O)(=O)[O-])ccc21)C(=O)N[C@@H](CCC(=O)O)C(=O)N1CCC[C@H]1C(=O)N[C@@H](CC(=O)O)C(=O)N[C@@H](C)C(=O)N[C@@H](CC(C)C)C(=O)NCCOCCOCCOCCOCCNC(=O)C1CCN(S(=O)(=O)c2ccccc2-c2c3ccc(=[N+]4CCc5ccccc54)cc-3oc3cc(N4CCc5ccccc54)ccc23)CC1 (stereo partly drawn) [R7]
conversion to the cleaved probe in urine [2]: ≤ 99% | probe cleaved in the urine sample alone (HPLC) [3]: less than 1% | conversion from intact to cleaved (HPLC-MS) ([5]; within 2 hours): 100%

CC[C@H](C)[C@H](NC(=O)CCC1=[N+]2C(=Cc3c(C)cc(C)n3[B-]2(F)F)C=C1)C(=O)N[C@@H](CCC(=O)O)C(=O)N1CCC[C@H]1C(=O)N[C@@H](CC(=O)O)C(=O)NCCNC(=O)c1ccc(/N=N/c2ccc(N(C)C)cc2)cc1 [T1] ({BODIPY(FL)}-IEPD-{Ethylenediamine-X1})
cleavage at 20 nM enzyme for 2 h (hGzmB [4]): < 5% | cleavage at 100 nM for 24 h (hGzmB [4]): 15%

AZD5363 [C5]
cancer cell death and H5 staining ([6]; AZD5363 on its own, E0771 cells): did not induce significant cancer cell death nor cause H5 staining | cancer cell death and H5 fluorescence emission ([6]; combination with 100 U mL^−1 IL-2, CD8+ T cell-E0771 co-cultures): caused significant cancer cell death and H5 fluorescence emission | H5 fluorescence signal compared to IL-2 only controls [1]: Increased fluorescence signals | H5 fluorescence signal compared to IL-2 only controls ([1]; listed as AZD5363): brightest H5 fluorescence staining

Ac-IEPD-aldehyde
effect of inhibitor pre-incubation on fold change of R7 ([5]; granzyme B pre-incubated with inhibitor): fold change decreased | effect of inhibitor on fluorescence response of H5 to hGzmB (hGzmB [7]; Ac-IEPD-CHO 50 μM pre-incubated 1 h with GzmB): drastically reduced the fluorescence response of H5

Ac-IEPD-{AMC} [listing 1 of 2 here]
Km (GzmB): 160 µM | kcat (GzmB): 0.5 s⁻¹ | LoD (hGzmB [7]; limit of detection of hGzmB): 25 nM | cleavage at 20 nM enzyme for 2 h (hGzmB [4]): < 1% | cleavage at 100 nM for 24 h (hGzmB [4]): 10%

Ac-IEPD-{AMC} [listing 2 of 2 here]
not cleaved [8]: <1% cleavage at 20 nM enzyme for 2 h | cleaved bond (hGzmB (100 nM)): D-AMC

H5m (IEFDAL; also: FRET labels, positions not given here)
HPLC conversion (20 nM hGzmB, 2 h) (hGzmB [4]): 70%

IEFDAL
cleaved bond [8]: Asp-Ala

IEPD-Dabcyl ({BODIPY(FL)}-IEPD-{Ethylenediamine-X1}; SMILES CC[C@H](C)[C@H](NC(=O)CCC1=[N+]2C(=Cc3c(C)cc(C)n3[B-]2(F)F)C=C1)C(=O)N[C@@H](CCC(=O)O)C(=O)N1CCC[C@H]1C(=O)N[C@@H](CC(=O)O)C(=O)NCCNC(=O)c1ccc(/N=N/c2ccc(N(C)C)cc2)cc1)
not cleaved [8]: <5% cleavage at 20 nM enzyme for 2 h

IEPDAG
cleaved bond [8]: Asp-Ala

IEPDRL
cleaved bond [8]: Asp-Arg

IEPDSG
cleaved bond [8]: Asp-Ser

IEPDSL
cleaved bond [8]: Asp-Ser

IEPDWL
cleaved bond [8]: Asp-Trp

IEPDWR
cleaved bond [8]: Asp-Trp

Ile-Glu-Pro-Asp-Ala-Leu [R7]
cleaved bond [9]: aspartic acid-Ala | cleaved bond [8]: aspartic acid-Ala | not cleaved [10]: less than 1% of both probes had been cleaved whilst in the urine sample alone

{BODIPY(FL)}-[Ile(3ξ)]EPDAL-{Ethylenediamine-X1} (SMILES CCC(C)[C@H](NC(=O)CCC1=[N+]2C(=Cc3c(C)cc(C)n3[B-]2(F)F)C=C1)C(=O)N[C@@H](CCC(=O)O)C(=O)N1CCC[C@H]1C(=O)N[C@@H](CC(=O)O)C(=O)N[C@@H](C)C(=O)N[C@@H](CC(C)C)C(=O)NCCNC(=O)c1ccc(/N=N/c2ccc(N(C)C)cc2)cc1) [H5]
cleaved bond [9]: aspartic acid-Ala | cleaved bond [8]: Asp-Ala | not cleaved [10]: less than 1% of both probes had been cleaved whilst in the urine sample alone
